From patent US9271492B2, “Antimicrobial composition” (Rohm and Haas Company, priority 2011, dated 2016)

Assays:
Assay type in all cases: cell-based
[1] = test system: Escherichia coli (E. coli ATCC #10536); experiment: Example 3: automated assessment of efficacy in surfactant base (2.85% sodium cocoyl glycinate + 1.85% sodium lauroamphoacetate, pH 10); settings: for bactericidal efficacy in combination with thymol (in words): in combination with thymol at concentrations lower than their MBC in the same surfactant formulation, complete kill in all 4 or 3 replicates; for MBC (minimum biocidal concentration): component alone in 2.85% sodium cocoyl glycinate + 1.85% sodium lauroamphoacetate solution at pH 10
Experimental: In these examples, the efficacy of combinations of thymol and menthadiene alcohols were tested in a surfactant cleansing formulation comprising 2.85% sodium cocoyl glycinate and 1.85% sodium lauroamphoacetate. This corresponds to a 50% in use dilution with water of a typical neat formulation containing 5.7% cocoyl glycinate and 3.7% % sodium lauroamphoacetate during hand washing. Solutions were prepared such that the concentrations of the surfactant components and test actives were 1.1 times the final desired concentration in order to allow for dilution with the bacterial inoculum in the test. The solutions were manually adjusted to pH 10.0 by dropwise addition of sodium hydroxide solution, as measured with a pH meter at ambient temperature. Solutions of the thymol and/or menthadiene alcohols were prepared at a maximum of 24 hours before testing. The same thymol and menthadiene alcohols were used as in Example 1.
The efficacy of the combinations of the present invention was determined against the same bacterium as in Example 1, Escherichia coli (E. coli ATCC #10536), at a concentration of approximately 1×10^8 bacteria per mL.
Tests were conducted using standard microtiter plate assays using an automated liquid handling system. 270 μl of the surfactant test solution was pipetted into each well of the microtitre plate (Nunc F Gamma Irradiated 96F untreated microtitre plates of clear polystyrene) and 30 μl of the bacterial suspension was then added. After exactly 15 seconds of bacterial exposure, a 30 μl volume of bacterial cells was withdrawn and transferred to 270 μl of D/E quench solution. After 5 minutes in the D/E quench, the optical density (OD) was measured for each plate in turn at two specific wavelengths (450 nm and 590 nm). These provide a dual check of antimicrobial activity, as the OD450 reading is specific for the yellow colour of D/E quench when bacterial growth is observed, whereas OD590 is specific for the initial purple colour of the D/E quench which is retained if no bacterial growth is observed. […] Delta OD values were calculated by subtracting […] at time=16 hours. […] To identify antibacterially efficacious systems (those preventing appreciable bacterial growth after incubation), the following threshold changes in OD readings have been adopted: if (1). OD450 increases by less than 0.2 absorbance unit (AU) on incubation and (2). […] The number of replicate wells showing either bacterial growth or no growth is also readily assessed by eye by following the colour change. […]
In each case, binary mixtures were assessed in the weight to weight ratio of thymol to menthadiene alcohol of 1:2.5.

[2] = test system: Escherichia coli (E. coli - ATCC #10536); experiment: Example 2: high resolution MBC synergy assay in phosphate buffer containing 5% dipropylene glycol; settings: for ΣFBC: calculated from Ca/MBCA + Cb/MBCB; for MBC of component alone (MBCA, MBCB) / Cb, end-point (MBC) of second component carveol in the mixture / Cb, end-point (MBC) of second component perillyl alcohol in the mixture / Ca, end-point (MBC) of first component thymol in the mixture: complete kill in 15 seconds; for MBC of component alone (MBCA, MBCB): phosphate buffer with 5% DPG, about 1×10^8 bacteria per mL; for Cb, end-point (MBC) of second component carveol in the mixture / Cb, end-point (MBC) of second component perillyl alcohol in the mixture: mixture with thymol at Ca
Experimental: In this Example, a wide range of combinations of chemicals was tested by conducting high resolution MBC assays of carveol or perillyl alcohol in the presence of various concentrations of thymol. […] The MBC plate was inoculated one column at a time with the test microorganism. An aliquot of the inoculated well was transferred at 15 seconds to a plate containing a neutralizing agent (D/E Neutralizing Broth), mixed and held for 5 minutes before being transferred to a growth plate containing trypticase soy broth (TSB). The TSB plate was incubated at 37° C. and read for the presence/absence of growth at 24 hours. […] This microorganism is representative of natural contaminants in many consumer and industrial applications. […] The tables show the specific combinations of two components; results against the microorganism tested; the end-point activity in weight % measured by the MBC for the first component alone (thymol, MBCA), for the second component alone ([…] alcohol, MBCB), for the first component in the mixture (Ca) and for the second component in the mixture (Cb); the calculated ΣFBC value; and the range of synergistic ratios for each combination tested (first component to second component or A/B) against the particular microorganism.

[3] = test system: Escherichia coli (10536 strain); experiment: Example 1: 15 second contact suspension kill assay, mean bacterial survival and MBC; settings: component alone; lowest concentration giving complete kill after 15 seconds; upper boundary to the MBC

SMILES: C=C(C)C1CC=C(C)C(O)C1 (stereo not shown) [carveol, 2-methyl-5-(prop-1-en-2-yl)cyclohex-2-enol]
- bactericidal efficacy in combination with thymol (in words) [1]: 15 second bactericidal efficacy
- ΣFBC [2]: 1.00
- MBC of component alone (MBCA, MBCB) [2]: 0.7 weight %
- Cb, end-point (MBC) of second component carveol in the mixture ([2]; thymol to carveol ratio 1 to 0.05): 0.025 weight %
- Cb, end-point (MBC) of second component carveol in the mixture ([2]; thymol to carveol ratio 1 to 0.08): 0.05 weight %
- Cb, end-point (MBC) of second component carveol in the mixture ([2]; thymol to carveol ratio 1 to 0.25): 0.075 weight %
- Cb, end-point (MBC) of second component carveol in the mixture ([2]; thymol to carveol ratio 1 to 0.5): 0.1 weight %
- Cb, end-point (MBC) of second component carveol in the mixture ([2]; thymol to carveol ratio 1 to 4.38): 0.35 weight %
- MBC (minimum biocidal concentration) [3]: 0.3 % w/v

SMILES: C=C(C)[C@@H]1CC=C(CO)CC1 [perillyl alcohol, (S)-(4-(prop-1-en-2-yl)cyclohex-1-en-1-yl)methanol]
- MBC (minimum biocidal concentration) [1]: 0.5 % w/v
- bactericidal efficacy in combination with thymol (in words) [1]: 15 second bactericidal efficacy
- ΣFBC [2]: 1.00
- MBC of component alone (MBCA, MBCB) [2]: 0.3 weight %
- Cb, end-point (MBC) of second component perillyl alcohol in the mixture ([2]; thymol to perillyl alcohol ratio 1 to 0.13): 0.025 weight %
- Cb, end-point (MBC) of second component perillyl alcohol in the mixture ([2]; thymol to perillyl alcohol ratio 1 to 0.17): 0.05 weight %
- Cb, end-point (MBC) of second component perillyl alcohol in the mixture ([2]; thymol to perillyl alcohol ratio 1 to 0.38): 0.075 weight %
- Cb, end-point (MBC) of second component perillyl alcohol in the mixture ([2]; thymol to perillyl alcohol ratio 1 to 0.5): 0.1 weight %
- Cb, end-point (MBC) of second component perillyl alcohol in the mixture ([2]; thymol to perillyl alcohol ratio 1 to 2.5): 0.2 weight %
- MBC (minimum biocidal concentration) [3]: 0.1 % w/v

SMILES: Cc1ccc(C(C)C)c(O)c1 [thymol, 2-isopropyl-5-methylphenol]
- MBC (minimum biocidal concentration) [1]: 0.2 % w/v
- ΣFBC [2]: 1.00
- Ca, end-point (MBC) of first component thymol in the mixture ([2]; mixture with carveol at Cb, thymol to carveol ratio 1 to 0.05): 0.5 weight %
- Ca, end-point (MBC) of first component thymol in the mixture ([2]; mixture with carveol at Cb, thymol to carveol ratio 1 to 0.08): 0.6 weight %
- Ca, end-point (MBC) of first component thymol in the mixture ([2]; mixture with carveol at Cb, thymol to carveol ratio 1 to 0.19): 0.4 weight %
- Ca, end-point (MBC) of first component thymol in the mixture ([2]; mixture with carveol at Cb, thymol to carveol ratio 1 to 0.25): 0.3 weight %
- Ca, end-point (MBC) of first component thymol in the mixture ([2]; mixture with carveol at Cb, thymol to carveol ratio 1 to 0.5): 0.2 weight %
- Ca, end-point (MBC) of first component thymol in the mixture ([2]; mixture with carveol at Cb, thymol to carveol ratio 1 to 3.5): 0.1 weight %
- Ca, end-point (MBC) of first component thymol in the mixture ([2]; mixture with carveol at Cb, thymol to carveol ratio 1 to 4.38): 0.08 weight %
- Ca, end-point (MBC) of first component thymol in the mixture ([2]; mixture with perillyl alcohol at Cb, thymol to perillyl alcohol ratio 1 to 0.17): 0.3 weight %
- Ca, end-point (MBC) of first component thymol in the mixture ([2]; mixture with perillyl alcohol at Cb, thymol to perillyl alcohol ratio 1 to 0.5): 0.2 weight %
- Ca, end-point (MBC) of first component thymol in the mixture ([2]; mixture with perillyl alcohol at Cb, thymol to perillyl alcohol ratio 1 to 2.5): 0.08 weight %
